From ChEMBL document CHEMBL1201862, “PubChem BioAssay data set” (2004)
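Following 48 hours of exposure in 96-well plates, responses at five concentrations were used to interpolate endpoints linearly. At the GI50, growth is halved.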 Active and inactive are the calls of the source. Cut-off read from the data, not from the text of the source: active = GI50 up to about 1.1 µM and inactive = higher.

Tests used:
Test in all cases: NCI anticancer screen, dose series, 48 h
[1] = test system: 786-0
[2] = test system: COLO 205
[3] = test system: EKVX
[4] = test system: KM-20L2
[5] = test system: KM12
[6] = test system: MOLT-4
[7] = test system: Malme-3M
[8] = test system: NCI-H522
[9] = test system: OVCAR-3
[10] = test system: SF-295
[11] = test system: SK-OV-3
[12] = test system: SN12C
[13] = test system: TK-10
[14] = test system: UACC-257
[15] = test system: UO-31
[16] = test system: LOX IMVI
[17] = test system: RXF 393
[18] = test system: Hs-578T
[19] = test system: MCF7
[20] = test system: MDA-N

Measured: GI50

COc1ccc(C=C2C(=O)OC(C)(C)OC2=O)cc1OC
inactive: [1] > 100 µM | [2] > 100 µM | [3] > 100 µM | [4] > 100 µM | [5] > 100 µM | [6] > 100 µM | [7] > 100 µM | [8] > 100 µM | [9] > 100 µM | [10] > 100 µM | [11] > 100 µM | [12] > 100 µM | [13] > 100 µM | [14] > 100 µM | [15] > 100 µM

Cc1ccc(NC(=O)C(=O)Cc2nc3ccccc3o2)c(C)c1
inactive: [1] > 100 µM | [2] > 100 µM | [3] > 100 µM | [4] > 100 µM | [5] > 100 µM | [16] > 100 µM | [7] > 100 µM | [9] > 100 µM | [17] > 100 µM | [10] > 100 µM | [11] > 100 µM | [12] > 100 µM | [13] > 100 µM | [14] > 100 µM | [15] > 100 µM

O=[PH](O)c1ccsc1
inactive: [1] > 100 µM | [2] > 100 µM | [3] > 100 µM | [4] > 100 µM | [16] > 100 µM | [6] > 100 µM | [8] > 100 µM | [17] > 100 µM | [11] > 100 µM | [12] > 100 µM | [13] > 100 µM | [15] > 100 µM

COc1cc(C(C#N)NNc2nc(C)cc(O)n2)cc(OC)c1OC (stereo not drawn)
inactive: [1] > 100 µM | [2] > 100 µM | [4] > 100 µM | [5] > 100 µM | [16] > 100 µM | [7] > 100 µM | [8] > 100 µM | [9] > 100 µM | [17] > 100 µM | [10] > 100 µM | [11] > 100 µM | [12] > 100 µM | [13] > 100 µM | [14] > 100 µM | [15] 75 µM

CCNc1ncnc2sc(SCc3ccccc3)nc12
inactive: [1] > 100 µM | [2] 36.1 µM | [3] 42 µM | [18] > 100 µM | [5] 48.4 µM | [16] 95.9 µM | [19] 79.6 µM | [20] > 100 µM | [6] 25.9 µM | [7] > 100 µM | [8] 62.2 µM | [9] > 100 µM | [17] > 100 µM | [10] 89.5 µM | [11] > 100 µM | [12] > 100 µM | [13] 60.7 µM | [14] 79.1 µM | [15] 36.8 µM

O=C1CCC2CCc3cccc4oc1c2c34 (stereo not drawn)
inactive: [1] > 100 µM | [2] > 100 µM | [3] 74.1 µM | [4] > 100 µM | [16] > 100 µM | [6] 96.2 µM | [9] > 100 µM | [17] > 100 µM | [10] 10.6 µM | [11] > 100 µM | [12] > 100 µM | [13] > 100 µM | [14] > 100 µM

CCOP(=O)(OCC)[C@]12C[C@@H](C)C=C[C@H]1COC2=O
inactive: [1] > 100 µM | [2] > 100 µM | [3] > 100 µM | [18] > 100 µM | [5] > 100 µM | [16] > 100 µM | [19] > 100 µM | [20] > 100 µM | [6] > 100 µM | [7] > 100 µM | [8] > 100 µM | [9] > 100 µM | [17] > 100 µM | [10] > 100 µM | [11] > 100 µM | [12] > 100 µM | [13] > 100 µM | [14] > 100 µM | [15] > 100 µM

C=C1C(C(=O)O)C1C(=O)O (stereo not drawn)
inactive: [1] > 100 µM | [3] > 100 µM | [4] > 100 µM | [5] > 100 µM | [16] > 100 µM | [6] > 100 µM | [7] > 100 µM | [8] > 100 µM | [17] > 100 µM | [10] > 100 µM | [11] > 100 µM | [12] > 100 µM | [13] > 100 µM | [14] > 100 µM | [15] > 100 µM

O=C(CN(c1ccccc1)c1ccccc1)n1nnc2ccccc21
inactive: [1] 39.2 µM | [2] 36.9 µM | [3] 36 µM | [4] 36.4 µM | [16] 24.2 µM | [6] 28.2 µM | [7] 46.3 µM | [8] 21.4 µM | [9] 44.6 µM | [17] 26.1 µM | [10] 74.8 µM | [11] > 100 µM | [12] 53 µM | [13] > 100 µM | [14] 41.4 µM | [15] 14.3 µM

COCCNC(=O)C1C(=O)C(=O)N(CCOC)C1=O (stereo not drawn)
inactive: [1] > 100 µM | [2] > 100 µM | [3] > 100 µM | [4] > 100 µM | [16] > 100 µM | [7] > 100 µM | [8] > 100 µM | [9] > 100 µM | [17] > 100 µM | [10] > 100 µM | [11] > 100 µM | [12] > 100 µM | [13] > 100 µM | [14] > 100 µM | [15] > 100 µM

CC(C)CC(NC(=O)OC(C)(C)C)C(=O)Nc1ccc(Nc2nc(F)nc(-c3c4ccccc4c4n3CCS4)n2)cc1 (stereo not drawn)
inactive: [1] 19.8 µM | [2] 18.9 µM | [3] 19.7 µM | [4] 18.3 µM | [5] 26.7 µM | [6] 16 µM | [7] 21.2 µM | [8] 15.3 µM | [9] 20.3 µM | [17] 34 µM | [10] 20.9 µM | [11] 18.8 µM | [12] 21.6 µM | [13] 28.8 µM | [14] 23.6 µM | [15] 19.7 µM

N#CC(C(=O)CCC(=O)Nc1ccc(Cl)c(Cl)c1)c1ccccc1 (stereo not drawn)
inactive: [1] > 100 µM | [3] > 100 µM | [4] > 100 µM | [5] > 100 µM | [6] > 100 µM | [7] > 100 µM | [9] > 100 µM | [17] > 100 µM | [10] > 100 µM | [12] > 100 µM | [14] > 100 µM | [15] > 100 µM

CC(C)C1NC(=O)[C@H](C)OC(=O)[C@@H](C(C)C)NC(=O)[C@@H](C)OC(=O)C(C(C)C)NC(=O)[C@H](C)OC1=O (stereo partly drawn)
inactive: [1] 20.9 µM | [2] > 54.6 µM | [3] > 100 µM | [4] 56.4 µM | [5] > 88.7 µM | [16] > 49.3 µM | [6] > 100 µM | [7] > 100 µM | [8] > 100 µM | [9] > 100 µM | [10] > 100 µM | [11] > 100 µM | [12] > 100 µM | [13] > 100 µM | [14] > 100 µM | [15] > 100 µM
